Test results reported in patent publication US8906962B2, “Compositions and methods for treating hair loss using non-naturally occurring prostaglandins” (Duke University, priority 2000, dated 2014).

What was measured:
hFP = molecular target: T1, hFP (Homo sapiens, UniProt P43088); assay: Radioligand Binding Assay (competition with (3H) PGF2 on hFP membranes); details: relative to PGF2α, hFP membranes from transfected COS-7 cells
T1 construct: expressed in transfected cells; host or cells: COS-7 cells, transient transfection with LipofectAMINE; membranes prepared
T1 sequence (P43088 whole entry): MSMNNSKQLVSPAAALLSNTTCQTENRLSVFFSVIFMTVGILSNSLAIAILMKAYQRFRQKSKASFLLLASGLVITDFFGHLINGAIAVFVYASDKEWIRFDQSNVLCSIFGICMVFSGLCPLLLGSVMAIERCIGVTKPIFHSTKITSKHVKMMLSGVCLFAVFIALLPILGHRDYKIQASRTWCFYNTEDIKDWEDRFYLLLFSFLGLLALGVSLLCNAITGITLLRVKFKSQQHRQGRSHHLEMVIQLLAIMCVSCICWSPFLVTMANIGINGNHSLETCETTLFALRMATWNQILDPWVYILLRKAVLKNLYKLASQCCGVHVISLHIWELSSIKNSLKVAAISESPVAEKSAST
Method: IC50 of a PGF can be determined relative to PGF2α using the Radioligand Binding Assay. As a control, the IC50 for PGF2α itself should be no lower than 1.0 nM and no higher than 5.0 nM.
In this assay, COS-7 cells are transiently transfected with the hFP recombinant plasmid using LipofectAMINE Reagent. Forty-eight hours later, the tranfected cells are washed with Hank's Balanced Salt Solution (HBSS, without CaCl2, MgCl2, MgSO4, or phenol red). The cells are detached with versene, and HBSS is added. The mixture is centrifuged at 200 g for 10 minutes, at 4° C. to pellet the cells. The pellet is resuspended in Phosphate-Buffered Saline-EDTA buffer (PBS; 1 mM EDTA; pH 7.4; 4° C.). The cells are disrupted by nitrogen cavitation (Parr model 4639), at 800 psi, for 15 minutes at 4° C. The mixture is centrifuged at 1000 g for 10 minutes at 4° C. The supernatant is centrifuged at 100,000 g for 60 minutes at 4° C. The pellet is resuspended to 1 mg protein/mL TME buffer (50 mM Tris; 10 mM MgCl2; 1 mM EDTA; pH 6.0; 4° C.) based on protein levels measured using the Pierce BCA Protein Assay kit. The homogenate is mixed for 10 seconds using a Kinematica POLYTRON® (available from KINEMATICA AG, Luzernerstrassel47A CH-6014 Littau, Switzerland). The membrane preparations are then stored at −80° C., until thawed for assay use.
The receptor competition binding assays are developed in a 96 well format. Each well contains […] of hFP membrane, 5 nM (3H) PGF2, and the various competing compounds in a total volume of […]. The plates are incubated at 23° C. for 1 hour. The incubation is terminated by rapid filtration using the Packard Filtermate 196 harvester through Packard UNIFILTER® GF/B filters (available from Packard Instrument Co., Inc. of Downers Grove Ill.) pre-wetted with TME buffer. The filter is washed four times with TME buffer. […] The plates are read on a Packard TOPCOUNT® Microplate Scintillation Counter (also available from Packard Instrument Co., Inc.)

C3H mice = assay: Telogen Conversion Assay (topical, skin colour grade, hair growth); assay type: in vivo; details: for Grades (average animal score): day 26, visual grade 0 to 4 of skin colour (Table 4)
Method: PGF's are tested for their potential to grow hair using the Telogen Conversion Assay. The Telogen Conversion Assay measures the potential of a PGF to convert mice in the resting stage of the hair growth cycle (“telogen”), to the growth stage of the hair growth cycle (“anagen”).
Without intending to be limited by theory, there are three principal phases of the hair growth cycle: anagen, catagen, and telogen. It is believed that there is a longer telogen period in C3H mice (Harlan Sprague Dawley, Inc., Indianapolis, Ind.) from approximately 40 days of age until about 75 days of age, when hair growth is synchronized. It is believed that after 75 days of age, hair growth is no longer synchronized. Wherein about 40 day-old mice with dark fur (brown or black) are used in hair growth experiments, melanogenesis occurs along with hair (fur) growth wherein the topical application of hair growth inducers are evaluated. The Telogen Conversion Assay herein is used to screen PGF's for potential hair growth by measuring melanogenesis.
Three groups of 44 day-old C3H mice are used: a vehicle control group, a positive control group, and a test PGF group, wherein the test PGF group is administered a PGF used in the method of this invention. […] Day 1 is the first day of treatment. Typical dosage concentrations are set forth in Table 3, however the skilled artisan will readily understand that such concentrations may be modified.
The mice are treated topically Monday through Friday on their lower back (base of tail to the lower rib). A pipettor and tip are used to deliver 400 μL to each mouse's back. The 400 μL application is applied slowly while moving hair on the mouse to allow the application to reach the skin.
While each treatment is being applied to the mouse topically, a visual grade of from 0 to 4 will be given to the skin color in the application area of each animal. As a mouse converts from telogen to anagen, its skin color will become more bluish-black.

EP1 receptor = molecular target: T2, EP1 receptor (Homo sapiens, UniProt P34995); assay: Receptor selectivity statement (EP1 activation); details: stated without method; said to result in the side effect of pain
T2 sequence (P34995 1-402): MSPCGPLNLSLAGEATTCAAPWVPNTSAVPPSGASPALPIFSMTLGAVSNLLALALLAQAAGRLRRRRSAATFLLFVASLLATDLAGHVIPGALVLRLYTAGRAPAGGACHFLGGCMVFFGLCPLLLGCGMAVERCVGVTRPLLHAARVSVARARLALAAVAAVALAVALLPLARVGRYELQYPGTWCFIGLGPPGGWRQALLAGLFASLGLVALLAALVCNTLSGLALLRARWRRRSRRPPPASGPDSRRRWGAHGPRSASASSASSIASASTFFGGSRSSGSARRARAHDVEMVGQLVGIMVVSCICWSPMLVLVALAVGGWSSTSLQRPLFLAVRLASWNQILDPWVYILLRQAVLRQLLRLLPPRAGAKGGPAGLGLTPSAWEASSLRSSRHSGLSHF

Molecule | IC50 (hFP) | hair growth / activity (C3H mice; 0.01% topical) | Grades (average animal score) (C3H mice; 0.01%) | hair growth / activity (C3H mice; 0.1% topical) | Grades (average animal score) (C3H mice; 0.1%) | further results
O=C(O)CCCCCC[C@@H]1[C@@H](CCC(O)C#Cc2ccccc2F)[C@H](O)C[C@@H]1O (some centres unmarked) [Example 3-1] | 19 nM | – | – | – | – | –
COC(=O)CCC/C=C\C[C@@H]1[C@@H](/C=C/[C@@H](O)COc2cccc(C(F)(F)F)c2)[C@H](O)C[C@@H]1O [Fluprostenol Methyl Ester] | – | grew hair | 3.9 | grew hair | 2.6 | –
O=C(O)CCCCCC[C@@H]1[C@@H](CCC(O)c2cc3ccccc3s2)[C@H](O)C[C@@H]1O (some centres unmarked) [Example 3-2] | 27 nM | – | – | – | – | –
N[C@@H](Cc1cc(I)c(Oc2ccc(O)c(I)c2)c(I)c1)C(=O)O [T3 compound, 3,5,3′-triiodothyronine, reference compound] | – | grew hair | – | – | – | –
O=C(O)CCCCCC[C@@H]1[C@@H](CCC(O)c2nc3ccccc3s2)[C@H](O)C[C@@H]1O (stereo partly drawn) [13,14-dihydro-15-(2-benzathiozolyl)pentanor Prostaglandin F1α] | 45 nM | – | – | – | – | hair growth (C3H mice; concentration not given): grew hair
Latanoprost [reference compound] | – | active | 0.71 | active | 2.9 | activation of EP1 receptor (nonselective) (EP1 receptor): activates the EP1 receptor
